Assay results published in PMC10959927, “Platinum iodido drugs show potential anti-tumor activity, affecting cancer cell metabolism and inducing ROS and senescence in gastrointestinal cancer cells” (Communications Biology, 2024).
“And” between values parts separate entries of the source, which are not always exact repeats. Equal values may be shown once.

Experiments:
[1] = system: CC2509 fibroblasts; assay: Cell viability, crystal violet staining, non-tumoral cells; settings: read-out: IC50 concentration (± SD) at 48 h in non-tumoral cell lines; CC2509, 48 h
Protocol: (§1) Cell viability was assessed using a crystal violet-based staining method. […] The cells (2 × 10^5) were seeded in 24-multiwell dishes in 0.5 mL of complete medium and incubated overnight. […] After 48 h, cells were fixed with 1% glutaraldehyde (20–30 min), washed with distilled water, and stained with 0.1% crystal violet. […] IC50 were calculated by using GraphPad Prism (version 8.0). Nonlinear regression was used to fit the data to the log (inhibitor) versus response (variable slope).

[2] = system: HPDE cells; assay: as above; settings: read-out: IC50 concentration (± SD) at 48 h in non-tumoral cell lines
Protocol: as §1

[3] = system: telomeres, 36B4, MT-COX1, MT-CYB DNA of MKN45 cells; assay: Oxidized bases (FPG-sensitive lesions) in genome regions by qPCR; type: cell-based, human; settings: MKN45, IC50 concentration 24 h, normalized to control, single replicates
Excerpt: (§2) Total cellular DNA from MKN45 and PANC1 cells was extracted using an NZY Tissue gDNA Isolation Kit (Nzytech, MB13503) following the manufacturer’s instructions and quantified using a Nanodrop (Nanodrop Spectrophotometer ND-1000, ThermoFisher Scientific, Wilmington, DE, USA). We adapted the procedure described by O’Callaghan et al.[76] to measure oxidative DNA damage at telomeres, 36B4 genomic region and at mitochondrial DNA (MT-COX1, MT-CYB). This is a qPCR method based on differences in PCR kinetics between DNA template digested by Formamidopyrimidine DNA Glycosylase (FPG, Cat no. M0240S) and undigested DNA. This enzyme recognizes and cuts 8-oxoguanine, producing apurinic sites that are converted into single-strand breaks by its apurinic sites lyase activity. These single-strand breaks inhibit the PCR, thus, the ΔCT after digesting DNA by […] (Ct digested–Ct undigested) is proportional to the oxidative damage in the amplified region. DNA was incubated with 8 Units of FPG during 3 h in FPG buffer (NEB1, M0240S). The reaction was stopped by incubation at 95 °C for 5 min. qPCR analysis was performed on 40 ng of digested or undigested genomic DNA. Each qPCR was performed in triplicate including no-template controls in a StepOne Real‐time PCR System (Applied Biosystems, 4376357). Target genes (Table 3) were amplified using SYBR Green (Applied Biosystems, MB345). Thermal cycling of the qPCR reaction was initiated with a denaturation step at 95 °C for 10 min. The process consisted of 40 cycles (denaturation at 95 °C for 15 sec, annealing at 60 °C for 30 sec, and elongation at 72 °C for 30 sec). This experiment was repeated three independent times with 10–12 replicates.

[4] = system: telomeres, 36B4, MT-COX1, MT-CYB DNA of PANC1 cells; assay: as above; type: cell-based, human; settings: PANC1, IC50 concentration 24 h, normalized to control, single replicates
Excerpt: as §2

[5] = system: AGS cells; assay: Flow cytometry mitochondrial mass and membrane potential (MitoTracker Green / CMXRos); type: cell-based, human
Protocol: (§3) We used flow cytometry to study the mitochondrial mass, mitochondrial membrane potential (ΔΨm) and cellular senescence of untreated and treated cells. Cells (5 × 10^4) were seeded in 24-multiwell dishes and cultured overnight. […] Cells were tripsinized, stained with Mitoprobes and resuspended in Flow buffer [1X PBS; 3% Fetal Bovine Serum (v/v); 3 mM EDTA (v/v)] before analysis with a 4-laser Attune NxT Acoustic Cytometer (Thermo Fisher Scientific). For Mitoprobe assays, […] DAPI (Sigma) was used to exclude dead cells. Data were analyzed with FlowJo 9.3 software (Tree Star Inc., Ashland, OR). For mitochondrial mass and ΔΨm measurement, Mitotracker Green (MTGreen, M7514, Invitrogen) and Mitotracker Red CMXRos (CMXROS, M7512, Invitrogen) were used, respectively. Probes were incubated with cells for 30 min at 37 °C at a concentration of 100 nM (MTGreen) and 20 nM (CMXROS), and fluorescence was detected using the filters (Ex488nm/Em530/30) BL1 and (Ex561nm/Em585/16) YL1, respectively. To determine mitochondria functionality, the ratio between ΔΨm (MitoTracker Red CMXRos) versus Mit. Mass (MitoTracker Green) was calculated. The gating strategy used in all the Flow Cytometry experiments is reflected in Fig.S10.

[6] = system: MKN45 cells; assay: as above; type: cell-based, human
Protocol: as §3

[7] = system: PANC1 cells; assay: as above; type: cell-based, human
Protocol: as §3

[8] = system: PANC1 cells; assay: Clonogenic (CFU) assay after 1, 3, 24 h pre-treatment; type: cell-based, human
Protocol: For the clonogenic assay we used two different approaches. […] Then, cells were cultured in a 6-well plate at a very low concentration (2 × 10^3 cells per well) and incubated for 10 days. […] To evaluate the role of ROS in cell proliferation, we supplemented the growth medium with 0.5 mM NAC. After 10 days, the cells were fixed with 1% glutaraldehyde and stained with 0.1% crystal violet. The number of colonies was quantified directly and reflected as CFUs: Colony Forming Units.

[9] = MKN45, fold change vs C, replicates
[10] = PANC1, fold change vs C, replicates

[NH2][Pt]([NH2])([Cl])[Cl] [CDDP, cisplatin, reference compound]
IC50 [1]: 25 µM and 23.8 µM
IC50 [2]: 0.45 ± 0.05 µM
TEL (Fold change - ΔCt TEL), oxidative DNA damage ([3]; FPG-digested vs undigested): 2.134 and 3.241 and 3.532 and 0.2864 and 0.7917 and 1.101 and 0.9693 and 0.9768 and 0.981 and 0.9672
36B4 (Fold change - ΔCt 36B4), oxidative DNA damage [3]: 0.8255 and 0.8326 and 1.095 and 1.237 and 1.611 and 1.72 and 2.271 and 2.214 and 1.327 and 2.203
MT-COX1 (Fold change - ΔCt MT-COX1), oxidative DNA damage [3]: 1.028 and 1.042 and 1.044 and 1.141 and 0.8202 and 0.6032 and 2.316 and 2.623 and 3.028
MT-CYB (Fold change - ΔCt MT-CYB), oxidative DNA damage [3]: 1.38 and 1.409 and 1.605 and 1.1947 and 1.217 and 1.312 and 1.3882 and 2.275 and 1.316 and 2.313
TEL (Fold change - ΔCt TEL), oxidative DNA damage ([4]; FPG-digested vs undigested): 4.038 and 4.138 and 5.415 and 0.6214 and 0.3967 and 0.9429 and 1.679 and 1.417 and 1.6318 and 1.586
36B4 (Fold change - ΔCt 36B4), oxidative DNA damage [4]: 1.144 and 1.346 and 0.8021 and 1.678 and 2.371 and 2.867 and 3.452 and 2.312 and 2.5645
MT-COX1 (Fold change - ΔCt MT-COX1), oxidative DNA damage [4]: 1.1557 and 1.18 and 1.253 and 1.195 and 2.153 and 0.9478 and 1.587 and 1.014 and 1.075 and 1.118
MT-CYB (Fold change - ΔCt MT-CYB), oxidative DNA damage [4]: 1.618 and 1.296 and 1.304 and 1.472 and 1.131 and 1.532 and 1.619 and 1.965 and 6.543 and 5.482 and 6.158 and 5.629
Fold change ΔΨm/MM ([5]; IC50 doses 24 h, CMX-ROS/MitoGreen ratio vs untreated 1.0): 1.12 and 0.8 and 0.61
Fold change %CMXROS, ΔΨm ([5]; fold change vs C, replicates): 0.87 and 0.86 and 0.72
Fold change %MTGreen, MM ([5]; fold change vs C, replicates): 0.78 and 0.73 and 0.76
Fold change ΔΨm/MM ([6]; MKN45, IC50 doses 24 h, CMX-ROS/MitoGreen ratio vs untreated 1.0): 0.77 and 0.76
Fold change %CMXROS, ΔΨm [6, 9]: 0.72 and 0.71
Fold change %MTGreen, MM [6, 9]: 0.94 and 0.93
Fold change ΔΨm/MM ([7]; PANC1, IC50 doses 24 h, CMX-ROS/MitoGreen ratio vs untreated 1.0): 0.48 and 0.57 and 0.56
Fold change %CMXROS, ΔΨm [7, 10]: 1.08 and 1.13
Fold change %MTGreen, MM [7, 10]: 1.99 and 2.23 and 2.11
CFUs ([8]; PANC1, 1 h pre-treatment at IC50, colonies after 10 days): 160 and 132 and 144
CFUs ([8]; PANC1, 3 h pre-treatment at IC50, colonies after 10 days): 20 and 28 and 36
